Source: US4363805A, “Aminodesoxy-1.4;3.6-dianhydrohexitol nitrates and pharmaceutical composition” (Firma Willmar Schwabe, priority 1980, dated 1982)

What was measured:
female NMRI-albino mice = assay: Acute toxicity, intravenous, mice; format: in vivo; conditions: within 24 hours
[1] = Acute toxicity, intravenous, mice; format: in vivo; conditions: mouse, in vivo; intravenous, within 24 hours; read-out: Evaluated LD50-range
narcotised guinea pigs = assay: Blood pressure experiments on guinea pigs, i.v.; format: in vivo, guinea pig
mongrel cats = assay: Inotropic and heart-circulatory effectiveness on narcotised cats, intravenous; format: in vivo, cat; conditions: 6 animals
[2] = 0.25 mg/kg i.v., before administration

**Q.** Which Frequency of death (female NMRI-albino mice; 100 mg/kg i.v.) does the source give for `COc1ccccc1OCC(O)CN[C@H]1CO[C@H]2[C@@H]1OC[C@@H]2O[N+](=O)[O-]` (stereo partly drawn) [Example 46, 5-[2-Hydroxy-3-(2-methoxyphenoxy)-propylamino]-5-desoxy-1.4;3.6-dianhydro-L-iditol 2-nitrate] here?
**A.** The Frequency of death was 0/3.

**Q.** What about the Frequency of death (female NMRI-albino mice; 200 mg/kg i.v.) of the same compound?
**A.** The Frequency of death was 2/3.

**Q.** And the LD50 at 24 h [1]?
**A.** Its LD50 at 24 h is 100 to 200 mg/kg.

**Q.** Which results are given for `O=[N+]([O-])O[C@@H]1CO[C@H]2[C@@H]1OC[C@@H]2NCCCOc1ccccc1` [Example 42, 2-(3-Phenoxypropylamino)-2-desoxy-1.4;3.6-dianhydro-D-glucitol 5-nitrate]?
**A.** Frequency of death (female NMRI-albino mice; 50 mg/kg i.v.): 0/3; Frequency of death (female NMRI-albino mice; 100 mg/kg i.v.): 2/3; Frequency of death (female NMRI-albino mice; 200 mg/kg i.v.): 6/6; LD50 at 24 h [1]: 50 to 100 mg/kg

**Q.** Which results are given for `CC(=O)Nc1ccc(OCCCN[C@H]2CO[C@H]3[C@@H]2OC[C@@H]3O[N+](=O)[O-])cc1` [Example 73, 5-[3-(4-Acetamidophenoxy)-propylamino]-5-desoxy-1.4;3.6-dianhydro-L-iditol 2-nitrate]?
**A.** Frequency of death (female NMRI-albino mice; 100 mg/kg i.v.): 0/3; Frequency of death (female NMRI-albino mice; 200 mg/kg i.v.): 0/3; LD50 at 24 h [1]: > 200 mg/kg

**Q.** For `N[C@H]1CO[C@H]2[C@@H]1OC[C@@H]2O[N+](=O)[O-]` [1 c], which Frequency of death (female NMRI-albino mice; 200 mg/kg i.v.) is on record?
**A.** Its Frequency of death is 0/3.

**Q.** And the LD50 at 24 h [1]?
**A.** The LD50 at 24 h was over 200 mg/kg.

**Q.** For `COc1ccc(CCCCN[C@H]2CO[C@H]3[C@@H]2OC[C@@H]3O[N+](=O)[O-])cc1` [Example 32, 5-[4-(4-Methoxyphenyl)-butylamino]-5-desoxy-1.4;3.6-dianhydro-L-iditol 2-nitrate], which Frequency of death (female NMRI-albino mice; 50 mg/kg i.v.) is on record?
**A.** The Frequency of death was 1/10.

**Q.** And the Frequency of death (female NMRI-albino mice; 100 mg/kg i.v.)?
**A.** The Frequency of death was 10/10.

**Q.** And the LD50 at 24 h [1]?
**A.** Its LD50 at 24 h is 50 to 100 mg/kg.

**Q.** Which Frequency of death (female NMRI-albino mice; 100 mg/kg i.v.) does the source give for `O=[N+]([O-])O[C@H]1CO[C@H]2[C@@H]1OC[C@@H]2NCCCOc1cccc(C(F)(F)F)c1` [Example 58, 5-[3-(3-Trifluoromethylphenoxy)-propylamino]-5-desoxy-1.4;3.6-dianhydro-L-iditol 2-nitrate] here?
**A.** Its Frequency of death is 7/12.

**Q.** And the LD50 at 24 h [1]?
**A.** Its LD50 at 24 h is about 100 mg/kg.

**Q.** What does the source list for `CCOc1ccccc1OCC(O)CN[C@H]1CO[C@H]2[C@@H]1OC[C@@H]2O[N+](=O)[O-]` (stereo partly drawn) [Example 47, 5-[2-Hydroxy-3-(2-ethoxyphenoxy)-propylamino]-5-desoxy-1.4;3.6-dianhydro-L-iditol 2-nitrate]?
**A.** blood pressure after (narcotised guinea pigs; 0.25 mg/kg i.v.): 41.25 ± 2.78 mm.Hg; blood pressure Δ (narcotised guinea pigs; 0.25 mg/kg i.v.): -5.75 mm.Hg; blood pressure before (narcotised guinea pigs; [2]): 47.00 ± 3.39 mm.Hg; blood pressure after (narcotised guinea pigs; 1.00 mg/kg i.v.): 33.75 ± 2.02 mm.Hg; blood pressure Δ (narcotised guinea pigs; 1.00 mg/kg i.v.): -10.75 mm.Hg; blood pressure after (narcotised guinea pigs; 2.50 mg/kg i.v.): 25.75 ± 1.31 mm.Hg; blood pressure Δ (narcotised guinea pigs; 2.50 mg/kg i.v.): -13.75 mm.Hg; blood pressure before (mongrel cats; [2]): 125.7 mm.Hg; dp/dt (inotropism) before (mongrel cats; [2]): 8333 mm.Hg/sec; heart frequency before (mongrel cats; [2]): 187.3 min⁻¹; blood pressure WD (mongrel cats; 0.25 mg/kg i.v.): 3.0 min; blood pressure after (mongrel cats; 0.25 mg/kg i.v.): 121.7 mm.Hg; blood pressure Δ (mongrel cats; 0.25 mg/kg i.v.): -4.0 mm.Hg; dp/dt (inotropism) after (mongrel cats; 0.25 mg/kg i.v.): 7433 mm.Hg/sec; dp/dt (inotropism) Δ (mongrel cats; 0.25 mg/kg i.v.): -900 mm.Hg/sec; dp/dt WD (mongrel cats; 0.25 mg/kg i.v.): 3.7 min; heart frequency after (mongrel cats; 0.25 mg/kg i.v.): 188.7 min⁻¹; heart frequency Δ (mongrel cats; 0.25 mg/kg i.v.): +1.4 min^-1; blood pressure WD (mongrel cats; 0.50 mg/kg i.v.): 5.7 min; blood pressure after (mongrel cats; 0.50 mg/kg i.v.): 114.2 mm.Hg; blood pressure Δ (mongrel cats; 0.50 mg/kg i.v.): -11.3 mm.Hg; dp/dt (inotropism) after (mongrel cats; 0.50 mg/kg i.v.): 7150 mm.Hg/sec; dp/dt (inotropism) Δ (mongrel cats; 0.50 mg/kg i.v.): -1417 mm.Hg/sec; dp/dt WD (mongrel cats; 0.50 mg/kg i.v.): 9.5 min; heart frequency after (mongrel cats; 0.50 mg/kg i.v.): 196.0 min⁻¹; heart frequency Δ (mongrel cats; 0.50 mg/kg i.v.): +0.3 min^-1; blood pressure WD (mongrel cats; 1.00 mg/kg i.v.): 8.2 min; blood pressure after (mongrel cats; 1.00 mg/kg i.v.): 100.8 mm.Hg; blood pressure Δ (mongrel cats; 1.00 mg/kg i.v.): -24.3 mm.Hg; dp/dt (inotropism) after (mongrel cats; 1.00 mg/kg i.v.): 5067 mm.Hg/sec; dp/dt (inotropism) Δ (mongrel cats; 1.00 mg/kg i.v.): -2983 mm.Hg/sec; dp/dt WD (mongrel cats; 1.00 mg/kg i.v.): 10.9 min; heart frequency after (mongrel cats; 1.00 mg/kg i.v.): 187.0 min⁻¹; heart frequency Δ (mongrel cats; 1.00 mg/kg i.v.): -5.0 min⁻¹; blood pressure WD (mongrel cats; 2.50 mg/kg i.v.): > 9.0 min; blood pressure after (mongrel cats; 2.50 mg/kg i.v.): 79.5 mm.Hg; blood pressure Δ (mongrel cats; 2.50 mg/kg i.v.): -45.2 mm.Hg; dp/dt (inotropism) after (mongrel cats; 2.50 mg/kg i.v.): 2933 mm.Hg/sec; dp/dt (inotropism) Δ (mongrel cats; 2.50 mg/kg i.v.): -4500 mm.Hg/sec; dp/dt WD (mongrel cats; 2.50 mg/kg i.v.): > 10 min; heart frequency after (mongrel cats; 2.50 mg/kg i.v.): 171.7 min⁻¹; heart frequency Δ (mongrel cats; 2.50 mg/kg i.v.): -20.3 min⁻¹

**Q.** What does the source list for `COc1cccc(OC)c1OCCCN[C@H]1CO[C@H]2[C@@H]1OC[C@@H]2O[N+](=O)[O-]` [Example 65, 5-[3-(2,6-Dimethoxyphenoxy)-propylamino]-5-desoxy-1.4;3.6-dianhydro-L-iditol 2-nitrate]?
**A.** Frequency of death (female NMRI-albino mice; 50 mg/kg i.v.): 4/10; Frequency of death (female NMRI-albino mice; 100 mg/kg i.v.): 10/10; Frequency of death (female NMRI-albino mice; 200 mg/kg i.v.): 3/3; LD50 at 24 h [1]: ~50 mg/kg

**Q.** With `COc1ccc(OCC(O)CN[C@H]2CO[C@H]3[C@@H]2OC[C@@H]3O[N+](=O)[O-])cc1` (stereo partly drawn) [Example 44, 5-[2-Hydroxy-3-(4-methoxyphenoxy)-propylamino]-5-desoxy-1.4;3.6-dianhydro-L-iditol 2-nitrate] as the compound, how does the Frequency of death (female NMRI-albino mice; 100 mg/kg i.v.) read?
**A.** Its Frequency of death is 0/3.

**Q.** What about the Frequency of death (female NMRI-albino mice; 200 mg/kg i.v.) of the same compound?
**A.** The Frequency of death was 2/3.

**Q.** What about the LD50 at 24 h [1] of the same compound?
**A.** Its LD50 at 24 h is 100 to 200 mg/kg.
